Assay results from PMC5065773 (Antiviral research, 2016).
Like-named read-outs stand apart in the source and are kept apart here.

Tests used:
DENV2 protease [1] = molecular target: T1, DENV2 protease (Dengue virus type 2, UniProt P14340); experiment: In vitro protease assay with fluorogenic substrate Bz-Nle-Lys-Arg-Arg-AMC; type: biochemical, dengue virus serotype 2 (DENV2); conditions: for Hill-Slope DENV 2 Pro: Hill slope of IC50 curve
WNV protease = WNV protease (West Nile virus, UniProt Q9Q6P4); experiment: as above; type: biochemical; conditions: for Hill-slope WNV Pro: Hill slope of IC50 curve; for inhibition at 25 µM: read-out: Inhibition of WNVpro (%) At 25 μM
DENV 1 Pro = DENV 1 Pro (Dengue virus type 1, UniProt P17763); experiment: as above; type: biochemical, dengue virus serotype 1 (DENV1); conditions: for Hill-slope DENV 1 Pro: Hill slope of IC50 curve
DENV 3 Pro = DENV 3 Pro (Dengue virus type 3, UniProt P27915); experiment: as above; type: biochemical, dengue virus serotype 3 (DENV3); conditions: for Hill-slope DENV 3 Pro: Hill slope of IC50 curve
DENV 4 Pro = DENV 4 Pro (Dengue virus type 4, UniProt P09866); experiment: as above; type: biochemical, dengue virus serotype 4 (DENV4); conditions: for Hill-slope DENV 4 Pro: Hill slope of IC50 curve
DENV2 protease [2] = molecular target: T1, DENV2 protease; experiment: Determination of Ki and kinetics of inhibition; type: biochemical, dengue virus serotype 2 (DENV2); conditions: for Mode of inhibition (Lineweaver-Burk plots): DENV2 protease
DENV2 replicon = experiment: Renilla luciferase reporter replicon assay in stable BHK-21/DENV2 replicon cells; type: cell-based
BHK-21 cells = experiment: Cytotoxicity to BHK-21 cells; type: cell-based; conditions: for CC50: ~24 h, CCK-8
DENV2 = experiment: Viral RNA copy number by qRT-PCR in DENV2-infected BHK-21 cells; type: cell-based; conditions: 24 h
DENV2 protease [3] = molecular target: T1, DENV2 protease; experiment: Tryptophan; type: binding, dengue virus serotype 2 (DENV2); conditions: for Competition with BPTI in fluorescence quenching: 50 μM compound and 10 μM BPTI; for Quenching of tryptophan fluorescence of DENV2 protease: 0.09-50 μM inhibitor, 2 μM protease
WNVpro = conditions: read-out: Ki of BPTI against WNVpro; ref Aleshin et al., 2007; cited from earlier work
DENV2pro = conditions: read-out: Ki of BPTI against DENV2pro; ref Mueller et al., 2007; cited from earlier work

Chain of WNV protease (Q9Q6P4 1428-1467): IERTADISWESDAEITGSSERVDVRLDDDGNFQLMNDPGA
Chain of WNV protease (Q9Q6P4 1506-1683): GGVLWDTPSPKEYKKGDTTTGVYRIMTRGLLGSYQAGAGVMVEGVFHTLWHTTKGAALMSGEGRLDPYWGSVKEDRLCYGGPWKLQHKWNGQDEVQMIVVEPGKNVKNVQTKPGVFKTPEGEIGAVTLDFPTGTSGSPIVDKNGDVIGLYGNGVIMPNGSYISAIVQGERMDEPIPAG
T1 sequence (P14340 1476-1653): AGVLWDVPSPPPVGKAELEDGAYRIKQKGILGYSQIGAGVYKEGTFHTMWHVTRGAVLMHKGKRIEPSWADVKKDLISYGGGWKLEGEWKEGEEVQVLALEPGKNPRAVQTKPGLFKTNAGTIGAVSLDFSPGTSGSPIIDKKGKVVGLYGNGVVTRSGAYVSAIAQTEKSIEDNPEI
Chain of DENV 4 Pro (P09866 1475-1652): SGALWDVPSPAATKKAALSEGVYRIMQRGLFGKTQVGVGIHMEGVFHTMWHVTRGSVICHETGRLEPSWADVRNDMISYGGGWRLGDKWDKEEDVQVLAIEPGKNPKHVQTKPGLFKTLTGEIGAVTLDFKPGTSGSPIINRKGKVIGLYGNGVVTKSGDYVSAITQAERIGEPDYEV
Chain of DENV 1 Pro (P17763 1394-1445, looked up, natural form): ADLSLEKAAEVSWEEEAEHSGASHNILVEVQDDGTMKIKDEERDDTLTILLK
Chain of DENV 1 Pro (P17763 1476-1660): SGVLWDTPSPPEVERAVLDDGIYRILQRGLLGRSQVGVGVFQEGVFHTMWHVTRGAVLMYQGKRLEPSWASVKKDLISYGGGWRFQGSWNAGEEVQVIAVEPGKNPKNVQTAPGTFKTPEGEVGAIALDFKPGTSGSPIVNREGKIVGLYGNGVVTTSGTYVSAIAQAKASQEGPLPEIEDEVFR
Chain of DENV 3 Pro (P27915 1474-1651): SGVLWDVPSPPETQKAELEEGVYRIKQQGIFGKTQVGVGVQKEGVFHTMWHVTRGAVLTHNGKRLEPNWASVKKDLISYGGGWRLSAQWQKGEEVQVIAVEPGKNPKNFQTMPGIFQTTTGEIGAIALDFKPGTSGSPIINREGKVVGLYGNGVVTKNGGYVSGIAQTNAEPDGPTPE

Cc1ccc(C(=O)c2cc(O)c(O)c([N+](=O)[O-])c2)cc1 [Compound F, Tolcapone]
IC50 (DENV2 protease [1]): 980 ± 60 nM | Hill-Slope DENV 2 Pro (DENV2 protease [1]): 1.51±0.07 | IC50 (WNV protease): 700 ± 40 nM | Hill-slope WNV Pro (WNV protease): 1.58±0.05 | inhibition at 25 µM (WNV protease): 95% | IC50 (DENV 1 Pro): 1150 ± 100 nM | Hill-slope DENV 1 Pro (DENV 1 Pro): 1.26±0.10 | Hill-slope DENV 3 Pro (DENV 3 Pro): 1.60±0.08 | IC50 (DENV 4 Pro): 640 ± 30 nM | Hill-slope DENV 4 Pro (DENV 4 Pro): 1.45±0.05 | Ki (DENV2 protease [2]): 220 ± 30 nM | Mode of inhibition (Lineweaver-Burk plots) (DENV2 protease [2]): competitive inhibition | EC50 (DENV2 replicon; Dengue virus, DENV2, BHK-21, 24 h, read-out: EC50 (μM) DENV2 Replicon): 2.29 ± 0.3 µM | Inhibition of DENV2 replicon replication (DENV2 replicon; screened at 5, 10 and 25 μM vs 1% DMSO control): inhibit DENV2 replication | CC50 (BHK-21 cells): 29.2 µM | Inhibition of DENV2 viral RNA (qRT-PCR) vs DMSO control (DENV2; 2 μM compound): good inhibition | Competition with BPTI in fluorescence quenching (DENV2 protease [3]): did not compete with BPTI | Quenching of tryptophan fluorescence of DENV2 protease (DENV2 protease [3]): quenched tryptophan fluorescence in a dose dependent manner

Cc1ccc(C(=O)Nc2ccc(S(=O)(=O)O)c3cc(S(=O)(=O)O)cc(S(=O)(=O)O)c23)cc1NC(=O)c1cccc(NC(=O)Nc2cccc(C(=O)Nc3cc(C(=O)Nc4ccc(S(=O)(=O)O)c5cc(S(=O)(=O)O)cc(S(=O)(=O)O)c45)ccc3C)c2)c1 [Compound H, Suramin]
IC50 (DENV2 protease [1]): 2660 ± 190 nM | Hill-Slope DENV 2 Pro (DENV2 protease [1]): 0.97±0.04 | inhibition at 10 µM (DENV2 protease [1]; read-out: Inhibition of DENV2pro (%) At 10 μM): 72% | inhibition at 25 µM (DENV2 protease [1]; read-out: Inhibition of DENV2pro (%) At 25 μM): 85% | IC50 (WNV protease): 3240 ± 110 nM | Hill-slope WNV Pro (WNV protease): 1.29±0.03 | inhibition at 10 µM (WNV protease; read-out: Inhibition of WNVpro (%) At 10 μM): 58% | inhibition at 25 µM (WNV protease): 73% | IC50 (DENV 1 Pro): 2760 ± 250 nM | Hill-slope DENV 1 Pro (DENV 1 Pro): 0.92±0.05 | IC50 (DENV 3 Pro): 3.25 ± 0.18 µM | Hill-slope DENV 3 Pro (DENV 3 Pro): 1.05±0.04 | IC50 (DENV 4 Pro): 3730 ± 140 nM | Hill-slope DENV 4 Pro (DENV 4 Pro): 1.25±0.12 | Ki (DENV2 protease [2]): 870 ± 140 nM | Cytotoxicity at the highest concentration tested (BHK-21 cells; ~ 100 μM, 24 h): did not exhibit any cytotoxicity | Inhibition of DENV2 viral RNA (qRT-PCR) vs DMSO control (DENV2; 10 μM compound): good inhibition | Quenching of tryptophan fluorescence of DENV2 protease (DENV2 protease [3]): failed to quench the tryptophan fluorescence

Bovine pancreatic trypsin inhibitor [BPTI]
Ki (WNVpro): 24 nM | Ki (DENV2pro): 26 nM

Tannic acid [Compound G]
Inhibition of DENV2pro (%) At 10 μM (DENV2 protease [1]; 10 μM compound): 99% | Inhibition of DENV2pro (%) At 25 μM (DENV2 protease [1]; 25 μM compound): 101% | Hill-Slope DENV 2 Pro (DENV2 protease [1]): 1.60±0.07 | Inhibition of WNVpro (%) At 10 μM (WNV protease; 10 μM compound): 98% | Inhibition of WNVpro (%) At 25 μM (WNV protease; 25 μM compound): 96% | Hill-slope WNV Pro (WNV protease): 0.88±0.05 | IC50 (WNV protease; read-out: IC50 WNV Pro, mean of duplicate experiments ± SEM): 120 ± 10 nM | Hill-slope DENV 1 Pro (DENV 1 Pro): 1.79±0.09 | Hill-slope DENV 3 Pro (DENV 3 Pro): 1.53±0.06 | Hill-slope DENV 4 Pro (DENV 4 Pro): 0.79±0.03 | Mode of inhibition (Lineweaver-Burk plots) (DENV2 protease [2]): competitive inhibition | Ki (DENV2 protease [2]; competitive inhibition model, 20 nM DENV2 protease): 340 ± 50 nM | CC50 (BHK-21 cells): 68.1 µM | Inhibition of DENV2 viral RNA (qRT-PCR) vs DMSO control (DENV2; 2 μM compound): good inhibition | Competition with BPTI in fluorescence quenching (DENV2 protease [3]): partially restore the fluorescence | Quenching of tryptophan fluorescence of DENV2 protease (DENV2 protease [3]): quenched tryptophan fluorescence in a dose dependent manner
